# The source made the active and inactive calls. The rule behind the calls is not given here.
# Columns and labels:
# [1] = Upregulation of KmrA promoter activity in Klebsiella pneumoniae assessed as increase in beta-galactosidase activity at 6 to 50 ug/ml by LacZ based OD600 analysis; type: ADME; settings: dose 6-50 µg/ml
# [2] = Upregulation of efflux pump KmrA gene expression in Klebsiella pneumoniae at 3 ug/ml incubated for 12 hrs by transcriptome analysis; type: ADME; settings: dose 3 µg/ml
# Klebsiella pneumoniae [3] = experiment: Hormesis activity against Klebsiella pneumonia assessed as inhibition of bacterial growth at 12 ug/ml measured after 24 hrs by OD600 based analysis; type: functional, organism-based; settings: dose 12.0 µg/ml
# Enterobacter cloacae [4] = experiment: Hormesis activity against Enterobacter cloacae assessed as increase in antibiotic MIC by measuring atreonamMIC at 3 ug/ml incubated for 12 hrs by OD600 based analysis (reference value: 3.125 ug/ml); type: ADME, organism-based; settings: in vivo, dose 3 µg/ml
# Acinetobacter baumannii [5] = experiment: Hormesis activity against Acinetobacter baumannii assessed as promotion of bacterial growth at 3 to 50 ug/ml measured for 24 hrs in presence of 80 to 120 ug/ml tetracycline by OD600 based analysis; type: organism-based; settings: in vivo, dose 3-50 µg/ml
# Klebsiella pneumoniae [6] = experiment: Hormesis activity against Klebsiella pneumonia assessed as promotion of bacterial growth by measuring prolonged logarithmic growth phase at 3 to 6 ug/ml measured from 840 to 1440 mins by OD600 based analysis; type: organism-based; settings: in vivo, dose lower 3 µg/ml, time lower 840 min, dose upper 6 µg/ml, time upper 1440 min
# Enterobacter cloacae [7] = experiment: Hormesis activity against Enterobacter cloacae assessed as increase in antibiotic MIC by measuring hygromycinMIC at 3 ug/ml incubated for 12 hrs by OD600 based analysis (reference value: 25 ug/ml); type: ADME, organism-based; settings: in vivo, dose 3 µg/ml
# Klebsiella pneumoniae [8] = experiment: Hormesis activity against overnight compound-treated Klebsiella pneumoniae deficient in KmrA gene expression assessed as increase in antibiotic MIC by measuring cefotaxime MIC at 3 ug/ml incubated for 12 hrs by OD600 based analysis (reference value: 0.39625 ug/ml); type: ADME, organism-based; settings: in vivo, dose 3 µg/ml
# Enterobacter cloacae [9] = experiment: Hormesis activity against overnight compound-treated Enterobacter cloacae assessed as increase in antibiotic MIC by measuring tetracycline MIC at 3 ug/ml incubated for 12 hrs by OD600 based analysis (reference value: 8 ug/ml); type: ADME, organism-based; settings: in vivo, dose 3 µg/ml
# Acinetobacter baumannii [10] = experiment: Hormesis activity against Acinetobacter baumannii assessed as increase in antibiotic MIC by measuring atreonamMIC at 3 ug/ml incubated for 12 hrs by OD600 based analysis (reference value: 6.25 ug/ml); type: ADME, organism-based; settings: in vivo, dose 3 µg/ml
# Enterobacter cloacae [11] = experiment: Hormesis activity against Enterobacter cloacae assessed as increase in antibiotic MIC by measuring chloramphenicol MIC at 3 ug/ml incubated for 12 hrs by OD600 based analysis (reference value: 3.125 ug/ml); type: ADME, organism-based; settings: in vivo, dose 3 µg/ml
# Klebsiella pneumoniae [12] = experiment: Hormesis activity against Klebsiella pneumoniae deficient in KmrA gene expression assessed as increase in antibiotic MIC by measuring ciprofloxacin MIC at 3 ug/ml incubated for 12 hrs by OD600 based analysis (reference value: 0.0390625 ug/ml); type: ADME, organism-based; settings: in vivo, dose 3 µg/ml
# Klebsiella pneumoniae [13] = experiment: Hormesis activity against Klebsiella pneumoniae deficient in KmrA gene expression assessed as increase in antibiotic MIC by measuring atreonamMIC at 3 ug/ml incubated for 12 hrs by OD600 based analysis (reference value: 1.5625 ug/ml); type: ADME, organism-based; settings: in vivo, dose 3 µg/ml
# [14] = Upregulation of efflux pump regulator gene expression in Klebsiella pneumoniae at 3 ug/ml incubated for 12 hrs by transcriptome analysis; type: ADME; settings: dose 3 µg/ml
# Klebsiella pneumoniae [15] = experiment: Hormesis activity against overnight compound-treated Klebsiella pneumoniae assessed as increase in antibiotic MIC by measuring azithromycin MIC at 3 ug/ml incubated for 12 hrs by OD600 based analysis (reference value: 1.5625 ug/ml); type: ADME, organism-based; settings: in vivo, dose 3 µg/ml
# Klebsiella pneumoniae [16] = experiment: Hormesis activity against Klebsiella pneumoniae assessed as increase in antibiotic MIC by measuring hygromycinMIC at 3 ug/ml incubated for 12 hrs by OD600 based analysis (reference value: 12.5 ug/ml); type: ADME, organism-based; settings: in vivo, dose 3 µg/ml
# [17] = Upregulation of efflux pump regulator promoter activity in Klebsiella pneumoniae assessed as increase in beta-galactosidase activity at 3 to 50 ug/ml by LacZ based OD600 analysis; type: ADME; settings: dose 3-50 µg/ml
# Klebsiella pneumoniae [18] = experiment: Hormesis activity against Klebsiella pneumoniae assessed as increase in antibiotic MIC by measuring streptomycin MIC at 3 ug/ml incubated for 12 hrs by OD600 based analysis (reference value: 0.78125 ug/ml); type: ADME, organism-based; settings: in vivo, dose 3 µg/ml
# Acinetobacter baumannii [19] = experiment: Hormesis activity against Acinetobacter baumannii assessed as increase in antibiotic MIC by measuring streptomycin MIC at 3 ug/ml incubated for 12 hrs by OD600 based analysis (reference value: 400 ug/ml); type: ADME, organism-based; settings: in vivo, dose 3 µg/ml
# Klebsiella pneumoniae [20] = experiment: Hormesis activity against Klebsiella pneumoniae deficient in KmrA gene expression assessed as increase in antibiotic MIC by measuring rifampicin MIC at 3 ug/ml incubated for 12 hrs by OD600 based analysis (reference value: 25 ug/ml); type: ADME, organism-based; settings: in vivo, dose 3 µg/ml
# Klebsiella pneumoniae [21] = experiment: Hormesis activity against Klebsiella pneumonia assessed as inhibition of bacterial growth at 25 to 50 ug/ml measured for 24 hrs in presence of 2 ug/ml tetracycline by OD600 based analysis; type: functional, organism-based; settings: dose 25-50 µg/ml
# Acinetobacter baumannii [22] = experiment: Hormesis activity against Acinetobacter baumannii assessed as increase in antibiotic MIC by measuring meropenem MIC at 3 ug/ml incubated for 12 hrs by OD600 based analysis (reference value: 0.625 ug/ml); type: ADME, organism-based; settings: in vivo, dose 3 µg/ml
# Klebsiella pneumoniae [23] = experiment: Hormesis activity against overnight compound-treated Klebsiella pneumoniae assessed as increase in antibiotic MIC by measuring atreonamMIC at 3 ug/ml incubated for 12 hrs by OD600 based analysis (reference value: 1.5625 ug/ml); type: ADME, organism-based; settings: in vivo, dose 3 µg/ml
# Enterobacter cloacae [24] = experiment: Hormesis activity against overnight compound-treated Enterobacter cloacae assessed as increase in antibiotic MIC by measuring meropenem MIC at 3 ug/ml incubated for 12 hrs by OD600 based analysis (reference value: 0.1953 ug/ml); type: ADME, organism-based; settings: in vivo, dose 3 µg/ml
# Acinetobacter baumannii [25] = experiment: Hormesis activity against overnight-compound treated Acinetobacter baumannii assessed as increase in antibiotic MIC by measuring rifampicin MIC at 3 ug/ml incubated for 12 hrs by OD600 based analysis (reference value: 1.5625 ug/ml); type: ADME, organism-based; settings: in vivo, dose 3 µg/ml
compound,measurement,setting,value
COc1ccc2cc3[n+](cc2c1OC)CCc1cc2c(cc1-3)OCO2 [BERBERINE],Activity,[1],Toxic
same,Activity,[2],Toxic
same,Activity,Klebsiella pneumoniae [3],Active
same,MIC,Enterobacter cloacae [4],3.125 µg/mL
same,Activity,Acinetobacter baumannii [5],Toxic
same,Activity,Klebsiella pneumoniae [6],Toxic
same,MIC,Enterobacter cloacae [7],25 µg/mL
same,MIC,Klebsiella pneumoniae [8],0.3962 µg/mL
same,MIC,Enterobacter cloacae [9],16 µg/mL
same,MIC,Acinetobacter baumannii [10],6.25 µg/mL
same,MIC,Enterobacter cloacae [11],3.125 µg/mL
same,MIC,Klebsiella pneumoniae [12],0.03906 µg/mL
same,MIC,Klebsiella pneumoniae [13],1.5625 µg/mL
same,Activity,[14],Toxic
same,MIC,Klebsiella pneumoniae [15],3.125 µg/mL
same,MIC,Klebsiella pneumoniae [16],12.5 µg/mL
same,Activity,[17],Toxic
same,MIC,Klebsiella pneumoniae [18],1.5625 µg/mL
same,MIC,Acinetobacter baumannii [19],400 µg/mL
same,MIC,Klebsiella pneumoniae [20],25 µg/mL
same,Activity,Klebsiella pneumoniae [21],Active
same,MIC,Acinetobacter baumannii [22],0.625 µg/mL
same,MIC,Klebsiella pneumoniae [23],1.5625 µg/mL
same,MIC,Enterobacter cloacae [24],0.1953 µg/mL
same,MIC,Acinetobacter baumannii [25],6.25 µg/mL
